SMILES strings stand for the structures.

This note sets out measurements from ChEMBL document CHEMBL1147906, “A comparative study of mesoionic compounds in Leishmania sp. and toxicity evaluation” (Eur J Med Chem, 2007).

Data set [1] in a line: Cytotoxicity against BALB/c mouse peritoneal macrophages assessed as cell viability after 24 hrs by MTT assay. It is filed as cell-based, Peritoneal macrophage cell. To be noted: read-out: TD50.
A further data set has as its system Leishmania braziliensis. Description: Antileishmanial activity against Leishmania braziliensis MCAN/BR/98/R619 promastigotes. It is filed as functional. To be noted: read-out: ED50 (the source's name).
The subject of the next data set is Leishmania chagasi. Kind of data set: Antileishmanial activity against Leishmania chagasi MCAN/BR/97/P142 promastigotes. The format is functional. To be noted: read-out: ED50 (the source's name).

For the compound `C(=C\c1sc(Nc2ccccc2)n[n+]1-c1ccccc1)/c1ccccc1`, the CC50 at 24 h in data set [1] was determined as 3.06 µM. The EC50 in the data set on Leishmania braziliensis was 49.6 µM; with Leishmania chagasi, 22.8 µM.

As for `COc1ccc(/C=C/c2sc(Nc3ccccc3)n[n+]2-c2ccccc2)cc1`, the CC50 at 24 h in data set [1] amounted to 1.13 µM. In addition, the EC50 came out at 46.2 µM with Leishmania braziliensis and 8.31 µM with Leishmania chagasi.

Turning to `O=[N+]([O-])c1ccc(/C=C/c2sc(Nc3ccccc3)n[n+]2-c2ccccc2)cc1`, the CC50 at 24 h in data set [1] was determined as 5.49 µM. Moreover, the EC50 came to 70.8 µM in the data set on Leishmania braziliensis and 22.8 µM in the data set with Leishmania chagasi.

On to `Clc1ccc(/C=C/c2sc(Nc3ccccc3)n[n+]2-c2ccccc2)cc1`, for which the CC50 at 24 h in data set [1] is 12 µM. In addition, the EC50 with Leishmania braziliensis is 6.23 µM; in the data set with Leishmania chagasi it was 13.2 µM.

With `N#Cc1ccc(/C=C/c2sc(Nc3ccccc3)n[n+]2-c2ccccc2)cc1`, in data set [1], the CC50 at 24 h came out at 441 µM. Also, the EC50 in the data set on Leishmania braziliensis turned out to be 28.1 µM; in the data set with Leishmania chagasi, 16 µM.

On to `CCOc1ccc(/C=C/c2sc(Nc3ccccc3)n[n+]2-c2ccccc2)cc1`, for which the CC50 at 24 h in data set [1] stood at 9.73 µM. Besides, the EC50 in the data set with Leishmania braziliensis stood at 13 µM; in the data set on Leishmania chagasi it was 33.3 µM.

In the case of `O=[N+]([O-])c1cccc(/C=C/c2sc(Nc3ccccc3)n[n+]2-c2ccccc2)c1`, the CC50 at 24 h in data set [1] was found to be 5.54 µM. Moreover, the EC50 turned out to be 221 µM in the data set on Leishmania braziliensis and 23.6 µM with Leishmania chagasi.

As to `Clc1cccc(/C=C/c2sc(Nc3ccccc3)n[n+]2-c2ccccc2)c1`, the CC50 at 24 h in data set [1] was found to be 6.23 µM. The EC50 was found to be 1.72 µM with Leishmania braziliensis and 5.17 µM in the data set with Leishmania chagasi.

On to `Brc1cccc(/C=C/c2sc(Nc3ccccc3)n[n+]2-c2ccccc2)c1`, for which, in data set [1], the CC50 at 24 h is 2.47 µM. In addition, the EC50 in the data set on Leishmania braziliensis is 25.9 µM; in the data set on Leishmania chagasi, 145 µM.

On to `Cc1ccc(/C=C/c2sc(Nc3ccccc3)n[n+]2-c2ccccc2)cc1`, for which the CC50 at 24 h in data set [1] amounted to 4.94 µM. Also, the EC50 came out at 20.7 µM in the data set on Leishmania braziliensis and 31.1 µM in the data set on Leishmania chagasi.

Turning to `Fc1ccc(/C=C/c2sc(Nc3ccccc3)n[n+]2-c2ccccc2)cc1`, the CC50 at 24 h in data set [1] is 5.82 µM. Moreover, the results for the EC50 in the data set on Leishmania braziliensis and with Leishmania chagasi were 5.1 µM and 3.42 µM, respectively.

Turning to `Brc1ccc(/C=C/c2sc(Nc3ccccc3)n[n+]2-c2ccccc2)cc1`, the CC50 at 24 h in data set [1] was 6.59 µM. Moreover, the values for the EC50 in the data set on Leishmania braziliensis and in the data set with Leishmania chagasi were 2.93 µM and 9.97 µM, respectively.

In the case of `Oc1ccc(/C=C/c2sc(Nc3ccccc3)n[n+]2-c2ccccc2)cc1`, in data set [1], the CC50 at 24 h was 32 µM. The EC50 is 376 µM in the data set with Leishmania braziliensis and 415 µM in the data set with Leishmania chagasi.

In the case of `COc1cccc(/C=C/c2sc(Nc3ccccc3)n[n+]2-c2ccccc2)c1`, the CC50 at 24 h in data set [1] is 0.61 µM. Further, the figures for the EC50 with Leishmania braziliensis and in the data set on Leishmania chagasi were 30.6 µM and 4.75 µM, respectively.

As to `N=C(N)c1ccc(OCCCCCOc2ccc(C(=N)N)cc2)cc1` [PENTAMIDINE], in data set [1], the CC50 at 24 h amounted to 2.21 µM. Moreover, the EC50 in the data set with Leishmania braziliensis stood at 64.2 µM; in the data set with Leishmania chagasi, 27.5 µM.
